The values below come from US10988477B2 (Merck Patent GmbH, priority 2018, dated 2021).

The experiment addresses GCN2 kinase (Homo sapiens, UniProt Q9P2K8). In words: GCN2 enzyme inhibition assay (Transcreener ADP2 fluorescence polarization). It is filed as biochemical. Particulars: Enzyme activity for compounds of Formula IV; Ki(app), 280 μM ATP, 25° C. How it is done: Compounds were screened for their ability to inhibit GCN2 kinase activity using a Transcreener® ADP^2 fluorescence polarization assay that detects ADP levels (BellBrook Labs, WI). Assays were carried out in a buffer consisting of 25 mM Tris-HCl (pH 7.5), 50 mM NaCl, 10 mM MgCl2 and 1 mM DTT. Final substrate concentrations were 280 μM ATP and 200 μM peptidic substrate ([…]-OH [(RS)7], Bachem, Switzerland). Assays were carried out at 25° C. in the presence of a (typical) final concentration of 4 nM GCN2 kinase. An assay buffer containing GCN2 kinase and (RS)7 was prepared. 4.7 μL of this stock solution was placed per well of a black, low volume, 384-well microtitre plate (e.g. catalogue number 3676, Corning Inc., NY). To this was added […] of DMSO containing serial dilutions of the test compound (typical final concentrations of test compound were 0 to 8 μM). The plate was incubated for 10 minutes at 25° C. prior to the addition of 4.7 μL of ATP stock buffer to initiate the enzyme reaction. The reaction was allowed to proceed for 1 hour at 25° C., prior to the addition of 10 μL detection buffer (consisting of appropriate concentrations of ADP^2 antibody and ADP Alexa633 tracer in 1× stop and detect buffer as supplied by BellBrook Labs). […] Percentage inhibition of enzyme activity was then calculated at each compound dose. IC50 and Ki(app) (using known assay and kinetic parameters) values were calculated from percentage inhibition data using a non-linear, tight-binding algorithm. All data analysis was undertaken using the Screener® software package (Genedata, Switzerland).
For orientation: Polarisation of emitted light reports the rotation of a fluorescent probe.

Chain of GCN2 kinase (Q9P2K8 whole entry): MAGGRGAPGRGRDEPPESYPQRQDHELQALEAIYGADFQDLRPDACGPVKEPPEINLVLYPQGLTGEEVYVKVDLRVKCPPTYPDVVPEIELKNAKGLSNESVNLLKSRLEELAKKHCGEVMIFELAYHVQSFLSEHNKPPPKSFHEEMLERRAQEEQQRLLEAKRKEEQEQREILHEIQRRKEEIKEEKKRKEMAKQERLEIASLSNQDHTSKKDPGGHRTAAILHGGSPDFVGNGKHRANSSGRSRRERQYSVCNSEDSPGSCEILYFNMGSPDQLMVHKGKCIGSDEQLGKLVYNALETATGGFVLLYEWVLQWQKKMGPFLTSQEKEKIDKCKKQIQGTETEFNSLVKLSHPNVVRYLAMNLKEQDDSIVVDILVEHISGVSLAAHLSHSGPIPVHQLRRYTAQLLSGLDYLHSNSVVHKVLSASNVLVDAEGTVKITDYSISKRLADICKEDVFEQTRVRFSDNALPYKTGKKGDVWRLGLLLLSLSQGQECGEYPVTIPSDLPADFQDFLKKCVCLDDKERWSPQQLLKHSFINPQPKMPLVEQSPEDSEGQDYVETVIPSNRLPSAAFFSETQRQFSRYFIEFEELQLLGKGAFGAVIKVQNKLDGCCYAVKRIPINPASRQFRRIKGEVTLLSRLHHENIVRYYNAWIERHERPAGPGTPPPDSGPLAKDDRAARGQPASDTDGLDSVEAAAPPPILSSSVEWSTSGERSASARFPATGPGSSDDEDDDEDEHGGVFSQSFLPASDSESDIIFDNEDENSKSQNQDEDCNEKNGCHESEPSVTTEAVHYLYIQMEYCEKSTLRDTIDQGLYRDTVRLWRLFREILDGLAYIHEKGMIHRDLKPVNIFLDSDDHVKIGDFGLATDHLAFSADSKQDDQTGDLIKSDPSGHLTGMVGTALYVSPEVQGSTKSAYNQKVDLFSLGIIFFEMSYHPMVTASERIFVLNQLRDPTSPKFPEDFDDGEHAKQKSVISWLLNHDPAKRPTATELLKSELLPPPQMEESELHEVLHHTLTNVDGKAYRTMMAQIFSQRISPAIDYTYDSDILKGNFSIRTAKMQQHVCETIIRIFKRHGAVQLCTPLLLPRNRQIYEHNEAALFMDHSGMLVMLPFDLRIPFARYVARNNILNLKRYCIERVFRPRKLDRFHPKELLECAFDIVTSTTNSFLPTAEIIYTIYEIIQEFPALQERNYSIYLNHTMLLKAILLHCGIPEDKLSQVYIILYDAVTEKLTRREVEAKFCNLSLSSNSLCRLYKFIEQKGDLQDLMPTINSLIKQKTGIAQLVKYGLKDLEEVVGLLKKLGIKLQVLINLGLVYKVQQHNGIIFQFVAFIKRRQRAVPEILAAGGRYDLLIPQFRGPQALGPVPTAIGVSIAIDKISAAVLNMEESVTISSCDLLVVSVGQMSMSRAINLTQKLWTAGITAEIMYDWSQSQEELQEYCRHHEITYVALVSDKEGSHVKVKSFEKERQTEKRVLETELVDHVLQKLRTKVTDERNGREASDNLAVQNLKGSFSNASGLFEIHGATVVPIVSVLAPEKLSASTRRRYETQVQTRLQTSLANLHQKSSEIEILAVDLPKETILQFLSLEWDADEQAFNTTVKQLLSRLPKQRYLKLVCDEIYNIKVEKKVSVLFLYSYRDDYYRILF

The compound `FC(F)(F)c1cn2c(-c3ccnc(N4CCOC(c5cn[nH]c5)C4)n3)cnc2cn1` (single isomer, unassigned) [IV-185, 2-(1H-Pyrazol-4-yl)-4-(4-(6-(trifluoromethyl)imidazo[1,2-a]pyrazin-3-yl)pyrimidin-2-yl)morpholine] yielded a Ki of 10 to 100 nM. Take `FC(F)(F)c1cn2c(-c3ccnc(N4CCOC(c5cn[nH]c5)C4)n3)cnc2cn1` (single isomer, unassigned) [IV-186, 2-(1H-Pyrazol-4-yl)-4-(4-(6-(trifluoromethyl)imidazo[1,2-a]pyrazin-3-yl)pyrimidin-2-yl)morpholine]: the Ki is less than 10 nM.

Turning to `CC1CN(c2ccnc(-c3cnc4cnc(C(F)(F)F)cn34)n2)C(C)C(c2cn[nH]c2)N1` (single isomer, unassigned) [IV-223, 3-(4-(2,5-Dimethyl-3-(1H-pyrazol-4-yl)piperazin-1-yl)pyrimidin-2-yl)-6-(trifluoromethyl)imidazo[1,2-a]pyrazine], the Ki lay within 100 to 1000 nM. Compound `CC1C(c2cn[nH]c2)NCCN1c1ccnc(-c2cnc3cnc(Cl)cn23)n1` (single isomer, unassigned) [IV-229, 6-Chloro-3-(4-(2-methyl-3-(1H-pyrazol-4-yl)piperazin-1-yl)pyrimidin-2-yl)imidazo[1,2-a]pyrazine] had a Ki of 100 to 1000 nM. Compound `FC(F)(F)c1cn2c(-c3nccc(N4CCNC(c5cn[nH]c5)C4)n3)cnc2cn1` (single isomer, unassigned) [IV-231, 3-(4-(3-(1H-Pyrazol-4-yl)piperazin-1-yl)pyrimidin-2-yl)-6-(trifluoromethyl)imidazo[1,2-a]pyrazine] had a Ki of 100 to 1000 nM. The compound `FC(F)(F)c1cn2c(-c3nccc(N4CCNC(c5cn[nH]c5)C4)n3)cnc2cn1` (single isomer, unassigned) [IV-232, 3-(4-(3-(1H-Pyrazol-4-yl)piperazin-1-yl)pyrimidin-2-yl)-6-(trifluoromethyl)imidazo[1,2-a]pyrazine] registered a Ki of 10 to 100 nM. To `Clc1cn2c(-c3nccc(N4CCNC(c5cn[nH]c5)C4)n3)cnc2cn1` (single isomer, unassigned) [IV-237, 3-(4-(3-(1H-Pyrazol-4-yl)piperazin-1-yl)pyrimidin-2-yl)-6-chloroimidazo[1,2-a]pyrazine] belongs 100 to 1000 nM. In the case of `Clc1cn2c(-c3nccc(N4CCNC(c5cn[nH]c5)C4)n3)cnc2cn1` (single isomer, unassigned) [IV-238, 3-(4-(3-(1H-Pyrazol-4-yl)piperazin-1-yl)pyrimidin-2-yl)-6-chloroimidazo[1,2-a]pyrazine], the Ki lay within 10 to 100 nM. The result for `CC1C(c2cn[nH]c2)OCCN1c1ccnc(-c2cnc3cnc(Cl)cn23)n1` (single isomer, unassigned) [IV-244, 4-(2-(6-Chloroimidazo[1,2-a]pyrazin-3-yl)pyrimidin-4-yl)-3-methyl-2-(1H-pyrazol-4-yl)morpholine] reads 100 to 1000 nM; that for `CC1CN(c2ccnc(-c3cnc4cnc(Cl)cn34)n2)C(C)C(c2cn[nH]c2)N1` (single isomer, unassigned) [IV-246, 6-Chloro-3-(4-(2,5-dimethyl-3-(1H-pyrazol-4-yl)piperazin-1-yl)pyrimidin-2-yl)imidazo[1,2-a]pyrazine], 100 to 1000 nM. Compound `NC(=O)c1cn2c(-c3nccc(N4CCN5C(=O)CCCC5C4)n3)cnc2cn1` (single isomer, unassigned) [IV-273, 3-(4-(6-Oxooctahydro-2H-pyrido[1,2-a]pyrazin-2-yl)pyrimidin-2-yl)imidazo[1,2-a]pyrazine-6-carboxamide] gave a Ki of 100 to 1000 nM. `NC(=O)c1cn2c(-c3nccc(N4CCN5C(=O)CCCC5C4)n3)cnc2cn1` (single isomer, unassigned) [IV-274, 3-(4-(6-Oxooctahydro-2H-pyrido[1,2-a]pyrazin-2-yl)pyrimidin-2-yl)imidazo[1,2-a]pyrazine-6-carboxamide] gave a Ki of 10 to 100 nM.

For `C[C@H]1CN(c2cccc(-c3cnc4cnc(C(F)F)cn34)n2)C[C@@H](CNS(C)(=O)=O)C1(F)F` (single isomer, unassigned) [IV-275], the Ki lay in the range of 100 to 1000 nM. The compound `Cc1[nH]ncc1C1NC(C)CN(c2ccnc(-c3cnc4cnc(Cl)cn34)n2)C1C` (single isomer, unassigned) [IV-282, 6-Chloro-3-(4-(2,5-dimethyl-3-(5-methyl-1H-pyrazol-4-yl)piperazin-1-yl)pyrimidin-2-yl)imidazo[1,2-a]pyrazine] showed a Ki of less than 10 nM. In turn, `Cc1[nH]ncc1C1NC(C)CN(c2ccnc(-c3cnc4cnc(Cl)cn34)n2)C1C` (single isomer, unassigned) [IV-283, 6-Chloro-3-(4-(2,5-dimethyl-3-(5-methyl-1H-pyrazol-4-yl)piperazin-1-yl)pyrimidin-2-yl)imidazo[1,2-a]pyrazine] gave a Ki of 100 to 1000 nM. As to `CC1CN(c2ccnc(-c3cnc4cnc(Br)cn34)n2)C(C)C(c2cn[nH]c2)N1` (single isomer, unassigned) [IV-287, 6-Bromo-3-(4-(2,5-dimethyl-3-(1H-pyrazol-4-yl)piperazin-1-yl)pyrimidin-2-yl)imidazo[1,2-a]pyrazine], the Ki lay within 10 to 100 nM.

The compound `CC1C(c2cn[nH]c2)OCCN1c1ccnc(-c2cnc3cnc(C#N)cn23)n1` (single isomer, unassigned) [IV-290, 3-(4-(3-Methyl-2-(1H-pyrazol-4-yl)morpholino)pyrimidin-2-yl)imidazo[1,2-a]pyrazine-6-carbonitrile] showed a Ki of less than 10 nM.

As for `CC1C(c2cn[nH]c2)OCCN1c1ccnc(-c2cnc3cnc(C#N)cn23)n1` (single isomer, unassigned) [IV-291, 3-(4-(3-Methyl-2-(1H-pyrazol-4-yl)morpholino)pyrimidin-2-yl)imidazo[1,2-a]pyrazine-6-carbonitrile], the Ki was in the range of 100 to 1000 nM.

In turn, `O=C1CCCC2CN(c3ccnc(-c4cnc5cnc(Cl)cn45)n3)CCN12` (single isomer, unassigned) [IV-293, 2-(2-(6-Chloroimidazo[1,2-a]pyrazin-3-yl)pyrimidin-4-yl)octahydro-6H-pyrido[1,2-a]pyrazin-6-one] returned a Ki of 10 to 100 nM. The result for `O=C1CCCC2CN(c3ccnc(-c4cnc5cnc(Cl)cn45)n3)CCN12` (single isomer, unassigned) [IV-294, 2-(2-(6-Chloroimidazo[1,2-a]pyrazin-3-yl)pyrimidin-4-yl)octahydro-6H-pyrido[1,2-a]pyrazin-6-one] reads 10 to 100 nM. The result for `CCN1C(C)CN(c2ccnc(-c3cnc4cnc(C(F)(F)F)cn34)n2)C(C)C1c1cn[nH]c1` (single isomer, unassigned) [IV-295, 3-(4-(4-Ethyl-2,5-dimethyl-3-(1H-pyrazol-4-yl)piperazin-1-yl)pyrimidin-2-yl)-6-(trifluoromethyl)imidazo[1,2-a]pyrazine] reads 100 to 1000 nM; that for `CCN1C(C)CN(c2ccnc(-c3cnc4cnc(C(F)(F)F)cn34)n2)C(C)C1c1cn[nH]c1` (single isomer, unassigned) [IV-296, 3-(4-(4-Ethyl-2,5-dimethyl-3-(1H-pyrazol-4-yl)piperazin-1-yl)pyrimidin-2-yl)-6-(trifluoromethyl)imidazo[1,2-a]pyrazine], less than 10 nM.

`CC1CC(c2cn[nH]c2)C(C)N(c2ccnc(-c3cnc4cnc(C(F)(F)F)cn34)n2)C1` (single isomer, unassigned) [IV-310]: the Ki was in the range of 10 to 100 nM. The compound `CC1CN(c2ccnc(-c3cnc4cnc(C#N)cn34)n2)C(C)C(c2cn[nH]c2)N1` (single isomer, unassigned) [IV-313, 3-(4-(2,5-Dimethyl-3-(1H-pyrazol-4-yl)piperazin-1-yl)pyrimidin-2-yl)imidazo[1,2-a]pyrazine-6-carbonitrile] returned a Ki of 100 to 1000 nM.

The compound `CC1CN(c2ccnc(-c3cnc4cnc(C#N)cn34)n2)C(C)C(c2cn[nH]c2)N1` (single isomer, unassigned) [IV-314, 3-(4-(2,5-Dimethyl-3-(1H-pyrazol-4-yl)piperazin-1-yl)pyrimidin-2-yl)imidazo[1,2-a]pyrazine-6-carbonitrile] returned a Ki of less than 10 nM. In the case of `CC1C(c2cn[nH]c2)OCCN1c1ccnc(-c2cnc3cnc(C(F)(F)F)cn23)n1` (single isomer, unassigned) [IV-315, 3-Methyl-2-(1H-pyrazol-4-yl)-4-(2-(6-(trifluoromethyl)imidazo[1,2-a]pyrazin-3-yl)pyrimidin-4-yl)morpholine], the Ki is 10 to 100 nM. Turning to `CC1C(c2cn[nH]c2)OCCN1c1ccnc(-c2cnc3cnc(Cl)cn23)n1` (single isomer, unassigned) [IV-316, 4-(2-(6-Chloroimidazo[1,2-a]pyrazin-3-yl)pyrimidin-4-yl)-3-methyl-2-(1H-pyrazol-4-yl)morpholine], the Ki was 100 to 1000 nM.

`CC1CN(c2nc(-c3cnc4cnc(C(F)(F)F)cn34)ncc2F)C(C)C(c2cn[nH]c2)N1` (single isomer, unassigned) [IV-324, 3-(4-(2,5-Dimethyl-3-(1H-pyrazol-4-yl)piperazin-1-yl)-5-fluoropyrimidin-2-yl)-6-(trifluoromethyl)imidazo[1,2-a]pyrazine] came in with a Ki of 10 to 100 nM.
